# Assay results from US10751396B2, “Early hyperlipidemia promotes endothelial activation via a caspase-1-sirtuin 1 pathway” (Temple University—Of The Commonwealth System of Higher …, priority 2015, dated 2020).
# Key:
# Format in all cases: cell-based, human
# caspase-1 = test: Caspase-1 activity assay (FAM-YVAD-FMK, flow cytometry) in HAECs; conditions: 6 h, oxLDL (100 μM), LPA (30 μM), LPC (30 μM)
# Experimental: (§1) Active caspase-1 level was determined with APO LOGIX kit (Cell Tech., Mountain View, Calif.). The kit contains a carboxyfluorescein (FAM) [Excitation/Emission (nm):490/520]-labeled peptide fluoromethyl ketone (FMK) caspase-1 inhibitor (FAM-YVAD-FMK), which irreversibly binds to active caspase-1. All procedures were performed according to the manufacturer's instruction. Briefly, HAECs (≤passage 9) were cultured in 6-well plates and serum starved overnight to quiescent the cells before treatment. Next day, HAECs were treated with indicated stimuli for 6 hr. Cells were then digested by trypsin-EDTA and suspended at 1×10^6 cells/ml. 150 μl of cell suspension were incubated at 37° C. with 1× FAM-YVAD-FMK for 1 hour then washed with 1× washing buffer. Unfixed caspase-1 stained cells were then incubated with 7-aminoactinomycin D (7-AAD; cell membrane integrity marker) (BD Pharmingen, San Diego, Calif.) for no more than 10 min before analysis. The Calibur flow cytometer (BD Biosciences, San Jose, Calif.) was used to determine caspase-1 active (Caspase-1^+) and 7-AAD^+ cells. Data were analyzed with the FlowJo software (Tree Star, Ashland, Oreg.).
# Active caspase-1 levels were determined with an APO LOGIX kit (Cell Technology, Mountain View, Calif.). The kit contained a carboxyfluorescein (FAM) (excitation/emission (nm): 490/520)-labeled peptide fluoromethyl ketone (FMK) caspase-1 inhibitor (FAM-YVAD-FMK), which irreversibly binds to active caspase-1. The procedures were performed according to the manufacturer's instructions. HAECs were cultured in 6-well dishes and serum-starved overnight to ensure quiescence of the cells before treatment. The next day, HAECs were treated with the indicated stimuli for 6 h. Cells were harvested and suspended at 1×10^6 cells/ml. The cell suspension (150 μl) was incubated in 37° C. with 1× FAM-YVAD-FMK for 1 h. After being washed with 1× washing buffer, the cells were fixed with fixative buffer and stored in 4° C. for up to 24 h. To determine the cell membrane integrity, the unfixed cells were stained with 7-AAD (Pharmingen) (0.25 μg/test) and incubated for no more than 10 min before analysis.
# (§2) All flow cytometric data were analyzed by using the FlowJo software (Tree Star, Ashland, Oreg.). The uncompensated data were collected from the flow cytometer (either FACSCalibur flow cytometer or LSRII flow cytometer; BD Biosciences). Forward and side scatter gates were used to select live cell populations from clumps and debris. The positive gating was determined by its matched IgG control, and single staining was used to determine the compensation parameter. Different gates were established to analyze the data according to cell size as described in our figures.
# HAECs [1] = test: Caspase-1/7-AAD co-staining for pyroptosis in HAECs
# Experimental: FIG. 7, comprising FIG. 7A through FIG. 7D, depicts experimental results showing Oxidized low-density lipoprotein (oxLDL) and its components induce caspase-1 (casp-1) activation in human aortic endothelial cells (HAECs) via a reactive oxygen species (ROS)-mediated p-athway. FIG. 7A depicts pyroptotic cell death in HAECs caused by activation of casp-1 induced by oxLDL and its components. HAECs were cultured and treated with low-density lipoprotein (LDL; 100 μg/mL), oxLDL (100 μg/mL), oxLDL-derivatives lysophosphatidic acid (LPA, 100 μM), or lysophosphatidylcholine (LPC, 15 μM) as indicated for 6 hours. Casp-1 activity was determined by a commercial kit, and 7-aminoactinomycin D (7-AAD) fluorescence dye was used to determine the cell membrane integrity. Casp-1^+/7-AAD^+ cells were gated as pyrototic cells (Q3), casp-1^+ single positive cells (Q2) were gated as inflammatory cells, and 7-AAD^+ single positive cells (Q4) were gated as necrotic cells. FIG. 7B depicts ROS levels in pyroptotic cells. ROS levels were determined by dihydroethidium (DHE) fluorescence dye staining, and the mean fluorescence intensity (MFI) of DHE^+ cell fraction was determined. […] Allopurinol (1 mmol/L) and Apocynin (100 μM) were added 1 hour before oxLDL treatment. HAECs were then treated with oxLDL (100 μg/mL) for 6 hours and stained for caspase-1 activity. FIG. 7D depicts mRNA upregulation of inflammasome components, including NLRP1 (Nod-like receptor protein 1), NLRP3 (Nod-like receptor 3), PYCARD (or ASC, inflammasome adaptor apoptosis-associated speck-like protein containing a CARD), caspase-1, and IL-1β (interleukin-1β) in HAECs treated with oxLDL. Data are expressed as mean±SE. *P<0.05, changes with statistical significance.
# as §1
# Active caspase-1 levels were determined with an APO LOGIX kit (Cell Technology, Mountain View, Calif.). The kit contained a carboxyfluorescein (FAM) (excitation/emission (nm): 490/520)-labeled peptide fluoromethyl ketone (FMK) caspase-1 inhibitor (FAM-YVAD-FMK), which irreversibly binds to active caspase-1. The procedures were performed according to the manufacturer's instructions. HAECs were cultured in 6-well dishes and serum-starved overnight to ensure quiescence of the cells before treatment. The next day, HAECs were treated with the indicated stimuli for 6 h. Cells were harvested and suspended at 1×10^6 cells/ml. […]
# VEGFR-2 = VEGFR-2 expression in LPC-treated HAECs by flow cytometry; conditions: LPC (30 μM) 6 h; caspase-1 inhibitor or Sirt-1 activator 10 μM pretreatment where named
# Experimental: FIG. 17, comprising FIG. 17A through FIG. 17D, depicts experimental results showing inhibition of caspase-1 activation and activation of Sirt-1 increase VEGFR-2 expression. FIG. 17A depicts experiments showing caspase-1 depletion increases VEGFR-2 expression. A microarray data-mining analysis was performed by analyzing the indicated microarray dataset deposited in the National Institutes of Health NCBI-Geo-profile database. The gene expression value was determined based on the relative threshold cycle on the database. […] In addition, depletion of caspase-1 slightly increases the expressions of the caspase-1-cleaving substrates cytokines IL-1β and IL-18. […] FIG. 17B depicts caspase-1 inhibition and Sirt-1 activation increase the expression of VEGFR-2 after LPC treatment in HAECs. HAECs pretreated with the caspase-1 inhibitor (10 μM) and Sirt-1 activator (10 μM) and then treated with LPC (30 μM) for 6 h have an increased expression of VEGFR-2. FIG. 17C depicts three cell size gates were established, small, medium, and large according to FSC (y axis); and VEGFR-2 expression (x axis) was measured in those gated cells to analyze differential VEGFR-2 expressions according to the cell size after treatments with LPC (30 μM), caspase-1 inhibitor (10 μm), and Sirt-1 activator (10 μm) for 6 h. […] FIG. 17D depicts bar graphs showing the quantitation data of VEGFR-2 expressions. *, p<0.05.
# as §2
# HAECs [2] = test: Tube formation assay in Matrigel; conditions: LPC (30 μm) with or without caspase-1 inhibitor (10 μm), Matrigel 16 h
# Experimental: FIG. 18, comprising FIG. 18A and FIG. 18B, depicts experimental results showing tube formation, as an in vitro model of angiogenesis, is improved after caspase-1 inhibition in LPC-treated cells. FIG. 18A depicts experiments where HAECs were treated with LPC (30 μm) and caspase-1 inhibitor (10 μm) for 6 h. After the treatment, the cells were incubated in the Matrigel for 16 h for the analysis of tube formation. FIG. 18B depicts bar graph showing the increases of total master segment lengths after the inhibition of caspase-1 in LPC-treated HAECs.*, p<0.05.
# The Matrigel matrix (Bedford, Mass.) was used to coat the 96-well plates. Human aortic endothelial cells were cultured. The cells were treated with caspase-1 inhibitor (Anaspec, Fremont, Calif.) and proatherogenic stimulus LPC for 24 h. HAECs were harvested and suspended. Cell concentration was determined and added to each Matrigel-coated well and incubated for 16-18 h. Images were collected using the inverted microscope.
smiles,measurement,setting,value
"CCCCCCCCCCCCCCCC(=O)OC[C@@H](O)COP(=O)([O-])OCC[N+](C)(C)C [LPC, 1-hexadecanoyl-sn-glycerol-3-phosphorylcholine]",caspase-1 activation in larger size of HAECs,caspase-1; large FSC gate,52.8%
same,caspase-1 activation in smaller size of HAECs,caspase-1; small FSC gate,38.2%
same,"induction of inflammation, pyroptosis and necrosis (caspase-1/7-AAD gating)","HAECs [1]; HAECs, 6-hour stimulation, oxLDL 100 μg/mL, LPA 100 μM, LPC 15 μM","induced inflammation, inflammatory cell death (pyroptosis), and necrosis"
same,7-AAD+ pyroptosis in large size of caspase-1(+) HAECs,HAECs [1]; LPC-treated HAECs,9.93%
same,7-AAD+ pyroptosis in medium size of caspase-1(+) HAECs,HAECs [1]; LPC-treated HAECs,20.17%
same,7-AAD+ pyroptosis in smaller size of caspase-1(+) HAECs,HAECs [1]; LPC-treated HAECs,38.77%
same,VEGFR-2 expression in the larger size of HAECs,VEGFR-2,34.3%
same,VEGFR-2 expression in the medium size of HAECs,VEGFR-2,22.1%
same,VEGFR-2 expression in the smaller size of HAECs,VEGFR-2,11.3%
same,total master segment length of tube formation,HAECs [2],317 μm
